The results in this text go back to ChEMBL document CHEMBL1136603, “Synthesis and biological evaluation of novel indoloazepine derivatives as non-peptide vasopressin V2 receptor antagonists” (Bioorg Med Chem Lett, 2003).

Molecules are shown by their SMILES. Where only a bound is given, the exact number is not on record here.

Assay [1] deals with T1, Vasopressin V2 receptor (Homo sapiens, UniProt P30518). The assay is described as follows: Compound was assessed for their ability to displace [3H]AVP from human V2 receptors transfected into HEK293 cells at 0.1 uM concentration. It is filed as cell-based.
The target in assay [2] is T1, Vasopressin V2 receptor. Briefly: Displacement of [3H]AVP from human V2 receptors expressed in HEK293 cells. It is filed as cell-based.
In assay [3] the target is T1, Vasopressin V2 receptor. Briefly: Inhibitory activity of the human V2 receptor was assessed by the accumulation of cAMP in transfected HEK293 cells. It is filed as functional, cell-based.
A further assay addresses Vasopressin V1a receptor (Homo sapiens, UniProt P37288). The assay is described as follows: Binding affinity towards VIa receptor.
Assay [4] has as its target Vasopressin V2 receptor (Rattus norvegicus, UniProt Q00788). Briefly: Binding affinity towards V2 receptor.

The inhibition is the share of the control response that was lost under treatment. Higher therefore signals a strong effect. By IC50 is commonly meant the midpoint of a concentration-inhibition curve. A higher IC50 goes with weaker potency in that assay.

T1 sequence (P30518 whole entry): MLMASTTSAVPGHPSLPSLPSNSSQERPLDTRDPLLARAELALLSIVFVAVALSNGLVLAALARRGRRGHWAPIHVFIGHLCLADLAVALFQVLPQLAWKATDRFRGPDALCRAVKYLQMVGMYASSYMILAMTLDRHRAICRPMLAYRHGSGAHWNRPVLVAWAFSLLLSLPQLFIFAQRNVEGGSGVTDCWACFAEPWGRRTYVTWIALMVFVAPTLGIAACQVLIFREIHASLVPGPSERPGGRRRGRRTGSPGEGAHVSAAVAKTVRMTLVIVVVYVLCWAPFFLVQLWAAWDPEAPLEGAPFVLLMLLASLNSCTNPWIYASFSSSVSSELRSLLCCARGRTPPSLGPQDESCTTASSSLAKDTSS
Sequence of Vasopressin V2 receptor (Rattus norvegicus, UniProt Q00788) (Q00788 whole entry): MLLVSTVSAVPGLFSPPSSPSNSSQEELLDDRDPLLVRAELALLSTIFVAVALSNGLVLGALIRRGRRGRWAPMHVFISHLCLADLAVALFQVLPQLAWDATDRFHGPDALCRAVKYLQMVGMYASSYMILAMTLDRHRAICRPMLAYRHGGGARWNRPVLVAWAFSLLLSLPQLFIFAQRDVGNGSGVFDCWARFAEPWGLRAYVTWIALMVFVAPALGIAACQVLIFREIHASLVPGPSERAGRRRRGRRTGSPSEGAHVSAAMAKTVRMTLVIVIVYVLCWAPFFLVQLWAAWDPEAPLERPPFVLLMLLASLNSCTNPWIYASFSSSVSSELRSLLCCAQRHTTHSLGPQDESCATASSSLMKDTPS
Sequence of Vasopressin V1a receptor (P37288 whole entry): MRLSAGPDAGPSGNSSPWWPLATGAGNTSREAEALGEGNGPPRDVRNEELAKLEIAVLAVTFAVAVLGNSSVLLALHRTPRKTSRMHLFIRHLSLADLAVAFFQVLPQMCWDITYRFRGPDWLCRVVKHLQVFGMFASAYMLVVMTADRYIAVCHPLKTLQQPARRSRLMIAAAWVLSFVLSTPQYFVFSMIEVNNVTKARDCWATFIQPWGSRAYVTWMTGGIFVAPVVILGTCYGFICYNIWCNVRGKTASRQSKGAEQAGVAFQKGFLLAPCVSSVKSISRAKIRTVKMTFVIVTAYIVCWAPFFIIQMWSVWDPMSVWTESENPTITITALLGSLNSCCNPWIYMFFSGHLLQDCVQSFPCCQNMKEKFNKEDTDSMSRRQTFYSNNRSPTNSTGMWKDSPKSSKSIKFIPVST

With `Cc1ccc(-c2ccccc2C(=O)Nc2ccc(C(=O)N3CCCc4cn(Cc5ccccc5)c5cccc3c45)cc2)cc1`, on Vasopressin V2 receptor [1], the inhibition is under 30%.

Molecule `CC(=O)n1cc2c3c(cccc31)N(C(=O)c1ccc(NC(=O)c3ccccc3-c3ccc(C)cc3)cc1)CCC2` returned a half-inhibitory concentration (IC50) on Vasopressin V2 receptor [2] of 170 nM. That is a sub-micromolar value.

The molecule `CCCn1cc2c3c(cccc31)N(C(=O)c1ccc(NC(=O)c3ccccc3-c3ccc(C)cc3)cc1)CCC2` had an inhibition on Vasopressin V2 receptor [1] of under 30%.

Molecule `O=C(Nc1ccc(C(=O)N2CCCc3c(S(=O)(=O)O)[nH]c4cccc2c34)cc1)c1ccccc1-c1ccccc1` registered an IC50 on Vasopressin V2 receptor [2] of 13 nM.

In the case of `O=C(Nc1ccc(C(=O)N2CCCc3c[nH]c4cccc2c34)c(Cl)c1)c1ccccc1-c1ccccc1`, the results for the IC50 against Vasopressin V2 receptor [3] and on Vasopressin V2 receptor [2] were 330 nM and 50 nM, respectively.

Molecule `O=C(Nc1ccc(C(=O)N2CCCC3C(=O)Nc4cccc2c43)cc1)c1ccccc1-c1ccccc1` (configuration not stated) displayed an IC50 on Vasopressin V2 receptor [2] of 8 nM. This counts as single-digit nanomolar.

For `O=C(Nc1ccc(C(=O)N2CCCc3c(Cl)[nH]c4cccc2c34)cc1)c1ccccc1-c1ccccc1`, the IC50 on Vasopressin V2 receptor [2] was 44 nM.

As to `Cc1ccc(-c2ccccc2C(=O)Nc2ccc(C(=O)N3CCCc4cn(C)c5cccc3c45)cc2)cc1`, the IC50 on Vasopressin V2 receptor [2] was 210 nM.

As for `CCOC(=O)Cn1cc2c3c(cccc31)N(C(=O)c1ccc(NC(=O)c3ccccc3-c3ccc(C)cc3)cc1)CCC2`, at Vasopressin V2 receptor [2], the 50% inhibitory concentration (IC50) is 550 nM.

Turning to `O=C(Nc1ccc(C(=O)N2CCCc3c(S(=O)(=O)O)[nH]c4cccc2c34)cc1Cl)c1ccccc1-c1ccccc1`, the IC50 at Vasopressin V2 receptor [2] is 12 nM. Against the preceding molecule, the IC50 is about 46-fold lower.

As to `O=C(Nc1ccc(C(=O)N2CCCc3c[nH]c4cccc2c34)cc1)c1ccccc1-c1ccccc1`, the IC50 was 70 nM at Vasopressin V2 receptor [3], 3100 nM at Vasopressin V1a receptor, 20 nM at Vasopressin V2 receptor [2] and 1 nM on Vasopressin V2 receptor [4].

Turning to `Cc1ccc(F)cc1C(=O)Nc1ccc(C(=O)N2Cc3cccn3Cc3ccccc32)c(Cl)c1` [LIXIVAPTAN], at Vasopressin V2 receptor [3], half-maximal inhibition (IC50) required 91 nM.

For `Cc1ccc(-c2ccccc2C(=O)Nc2ccc(C(=O)N3CCCc4c[nH]c5cccc3c45)cc2)cc1`, the results for the half-inhibitory concentration (IC50) against Vasopressin V2 receptor [3] and at Vasopressin V2 receptor [2] were 70 nM and 11 nM, respectively.

`Cc1c(F)cccc1C(=O)Nc1ccc(C(=O)N2CCCc3c[nH]c4cccc2c34)cc1`: on Vasopressin V2 receptor [2], the concentration for half-maximal inhibition (IC50) amounted to 180 nM. This lies in the sub-micromolar range.

In turn, `Cc1ccc(F)cc1C(=O)Nc1ccc(C(=O)N2CCCc3c[nH]c4cccc2c34)cc1` came in with an IC50 on Vasopressin V2 receptor [2] of 190 nM.

As for `Cc1ccccc1C(=O)Nc1ccc(C(=O)N2CCCc3c[nH]c4cccc2c34)cc1`, the inhibition at Vasopressin V2 receptor [1] is under 30%.

For the molecule `O=C(Nc1ccc(C(=O)N2CCCc3c[nH]c4cccc2c34)cc1Cl)c1ccccc1-c1ccccc1`, the concentration for half-maximal inhibition (IC50) at Vasopressin V2 receptor [2] was 15 nM.
